Measured values reported in patent US9777020B2, “Furo-3-carboxamide derivatives and methods of use” (AbbVie Inc., priority 2014, dated 2017).

These compounds were tested against TrkA (Homo sapiens (Human), UniProt P04629) (assay: TrkA kinase HTRF enzyme inhibition assay). Conditions: TrkA pre-incubated with 200 μM ATP.
Format: biochemical
Protocol: TrkA enzyme was obtained from Invitrogen (as catalog numbers PV3144, PV3616, and PV3617, respectively). Enzyme activity was measured in an HTRF® (homogeneous time resolved fluorescence) assay, which detects enzymatic phosphorylation of a biotinylated synthetic peptide substrate (an LCK peptide analog, biotin-ahx-[…], from Genemed Synthesis). Phosphorylation is assessed by HTRF® in the presence of an anti-phosphotyrosine antibody conjugated to Eu^3+ cryptate (Cisbio) as donor fluorophore, and streptavidin conjugated to allophycocyanin (ProZyme) as acceptor fluorophore. The HTRF® signal was detected at two different wavelengths (620 nm and 665 nm) which were used to calculate the fluorescence ratio.
TrkA enzyme was titrated to a concentration optimized to ensure accurate measurement of the initial reaction rate. To allow the TrkA enzyme to undergo activation and auto-phosphorylation, a 20 minute pre-incubation with ATP was carried out (at twice the final targeted enzyme and ATP concentration) prior to addition of test compound and the peptide substrate.
TrkA in vitro assays were performed by pre-incubating TrkA (2-10 nM) with ATP (200 μM) for 20 minutes at ambient temperature in 50 mM HEPES pH 7.4, 10 mM MgCl2, 2 mM MnCl2, 100 μM Na3VO4, 1 mM dithiothreitol, 0.01% BSA (bovine serum albumin). Then, to the activated Trk enzyme mixture was added the test compound in 2% dimethyl sulfoxide. After 10 minutes, the peptide substrate (125 nM) was added. After 1 hour, enzyme reactions were terminated by addition of equal reaction volumes of detection/stop reagent (containing 0.2 μg/mL anti-phosphotyrosine monoclonal antibody labeled with europium from Cisbio (catalog#PT66-K), and 4 μg/mL PhycoLink® Streptavidin-Allophycocyanin conjugate from ProZyme (catalog#PJ25S) in 60 mM EDTA in 40 mM HEPES pH 7.4, 480 mM KF, 0.01% Tween® 20 and 0.1% BSA bovine serum albumin) Reaction plates were stored at 4° C. overnight before reading the fluorescence ratio signal on a PerkinElmer EnVision™ fluorescence detector. Individual reaction wells were stopped at time points to obtain reaction rates. The test inhibitor compounds were assayed in duplicate, at half-log serial dilutions over a range of concentrations (e.g. starting at 50 μM or 5 μM as the high compound concentration). The percent Trk enzyme inhibition was calculated from the initial rates of the inhibited reactions relative to the uninhibited control. IC50 values were calculated by fitting the inhibition percent to the concentration of inhibitor [I] in the assay in equation 1 below, to solve for the IC50. Inhibition %=100[I]/([I]+[IC50]) equation 1

TrkA, sequence (P04629 33-796): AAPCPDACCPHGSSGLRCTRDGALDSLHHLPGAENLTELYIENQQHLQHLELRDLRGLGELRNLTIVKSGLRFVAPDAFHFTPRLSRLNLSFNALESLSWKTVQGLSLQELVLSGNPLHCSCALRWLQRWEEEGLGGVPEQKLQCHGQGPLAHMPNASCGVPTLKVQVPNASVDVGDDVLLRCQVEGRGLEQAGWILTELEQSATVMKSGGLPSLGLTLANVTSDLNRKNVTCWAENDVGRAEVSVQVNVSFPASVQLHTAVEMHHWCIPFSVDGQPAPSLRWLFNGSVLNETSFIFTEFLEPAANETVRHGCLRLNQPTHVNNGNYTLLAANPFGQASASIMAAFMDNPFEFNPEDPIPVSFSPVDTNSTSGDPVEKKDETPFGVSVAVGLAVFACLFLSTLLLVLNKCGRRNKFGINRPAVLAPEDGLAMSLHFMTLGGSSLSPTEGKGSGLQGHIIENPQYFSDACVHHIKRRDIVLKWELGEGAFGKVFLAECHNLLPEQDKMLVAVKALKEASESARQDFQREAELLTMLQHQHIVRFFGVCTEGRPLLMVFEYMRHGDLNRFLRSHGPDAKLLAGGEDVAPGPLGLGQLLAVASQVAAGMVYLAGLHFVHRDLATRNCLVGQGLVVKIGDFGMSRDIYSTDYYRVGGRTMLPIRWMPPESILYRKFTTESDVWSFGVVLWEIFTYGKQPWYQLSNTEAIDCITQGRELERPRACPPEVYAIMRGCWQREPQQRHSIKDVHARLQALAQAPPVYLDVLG

Row | SMILES | IC50 [µM]
1 | Cn1cc2cc(NC(=O)c3coc4c3C(=O)NCC4)ccc2n1 [Example 1, N-(2-methyl-2H-indazol-5-yl)-4-oxo-4,5,6,7-tetrahydrofuro[3,2-c]pyridine-3-carboxamide] | 0.0442
2 | O=C(Nc1ccc(N2CCOCC2)cc1)c1coc2c1C(=O)NCC2 [Example 3, N-[4-(morpholin-4-yl)phenyl]-4-oxo-4,5,6,7-tetrahydrofuro[3,2-c]pyridine-3-carboxamide] | 0.173
3 | Cc1ccc(NC(=O)c2coc3c2C(=O)N(C)CC3)cc1 [Example 4, 5-methyl-N-(4-methylphenyl)-4-oxo-4,5,6,7-tetrahydrofuro[3,2-c]pyridine-3-carboxamide] | 0.375
4 | COc1cc(N2CCN(C(=O)OC(C)(C)C)CC2)ccc1NC(=O)c1coc2c1C(=O)NCC2 [Example 5, tert-butyl 4-(3-methoxy-4-{[(4-oxo-4,5,6,7-tetrahydrofuro[3,2-c]pyridin-3-yl)carbonyl]amino}phenyl)piperazine-1-carboxylate] | 0.0544
5 | COc1nc(N2CCN(C)CC2)ccc1NC(=O)c1coc2c1C(=O)NCCC2 [Example 7, N-[2-methoxy-6-(4-methylpiperazin-1-yl)pyridin-3-yl]-4-oxo-5,6,7,8-tetrahydro-4H-furo[3,2-c]azepine-3-carboxamide] | 0.212
6 | CCOc1nc(N2CCN(C(C)=O)CC2)ccc1NC(=O)c1coc2c1C(=O)N(CCOCc1ccccc1)CC2 [Example 8, N-[6-(4-acetylpiperazin-1-yl)-2-ethoxypyridin-3-yl]-5-[2-(benzyloxy)ethyl]-4-oxo-4,5,6,7-tetrahydrofuro[3,2-c]pyridine-3-carboxamide] | 0.0695
7 | CC(=O)N1CCN(c2ccc(NC(=O)c3coc4c3C(=O)NCC4)cc2)CC1 [Example 10, N-[4-(4-acetylpiperazin-1-yl)phenyl]-4-oxo-4,5,6,7-tetrahydrofuro[3,2-c]pyridine-3-carboxamide] | 0.0559
8 | Cn1ncc2cc(NC(=O)c3coc4c3C(=O)NCC4)ccc21 [Example 11, N-(1-methyl-1H-indazol-5-yl)-4-oxo-4,5,6,7-tetrahydrofuro[3,2-c]pyridine-3-carboxamide] | 0.064
9 | O=C(Nc1ccc2[nH]cnc2c1)c1coc2c1C(=O)NCC2 [Example 12, N-(1H-benzimidazol-5-yl)-4-oxo-4,5,6,7-tetrahydrofuro[3,2-c]pyridine-3-carboxamide] | 0.0996
10 | NC(=O)c1ccc(NC(=O)c2coc3c2C(=O)NCC3)cc1 [Example 13, N-(4-carbamoylphenyl)-4-oxo-4,5,6,7-tetrahydrofuro[3,2-c]pyridine-3-carboxamide] | 0.166
11 | O=C(Nc1ccc2[nH]ncc2c1)c1coc2c1C(=O)NCC2 [Example 14, N-(1H-indazol-5-yl)-4-oxo-4,5,6,7-tetrahydrofuro[3,2-c]pyridine-3-carboxamide] | 0.111
12 | CN1CCN(c2ccc(NC(=O)c3coc4c3C(=O)NCC4)nc2)CC1 [Example 16, N-[5-(4-methylpiperazin-1-yl)pyridin-2-yl]-4-oxo-4,5,6,7-tetrahydrofuro[3,2-c]pyridine-3-carboxamide] | 0.279
13 | CN1CCN(c2ccc(NC(=O)c3coc4c3C(=O)NCC4)cc2)CC1 [Example 17, N-[4-(4-methylpiperazin-1-yl)phenyl]-4-oxo-4,5,6,7-tetrahydrofuro[3,2-c]pyridine-3-carboxamide] | 0.0814
14 | COc1cc(N2CCN(C(C)=O)CC2)ccc1NC(=O)c1coc2c1C(=O)NCC2 [Example 18, N-[4-(4-acetylpiperazin-1-yl)-2-methoxyphenyl]-4-oxo-4,5,6,7-tetrahydrofuro[3,2-c]pyridine-3-carboxamide] | 0.0598
15 | CCOc1nc(N2CCN(C(C)=O)CC2)ccc1NC(=O)c1coc2c1C(=O)NCC2 [Example 19, N-[6-(4-acetylpiperazin-1-yl)-2-ethoxypyridin-3-yl]-4-oxo-4,5,6,7-tetrahydrofuro[3,2-c]pyridine-3-carboxamide] | 0.0163
16 | COCCOc1nc(N2CCN(C(C)=O)CC2)ccc1NC(=O)c1coc2c1C(=O)NCC2 [Example 20, N-[6-(4-acetylpiperazin-1-yl)-2-(2-methoxyethoxyl)pyridin-3-yl]-4-oxo-4,5,6,7-tetrahydrofuro[3,2-c]pyridine-3-carboxamide] | 0.0259
17 | CC(=O)N1CCN(c2ccc(NC(=O)c3coc4c3C(=O)NCC4)c(OC3COC3)n2)CC1 [Example 21, N-[6-(4-acetylpiperazin-1-yl)-2-(oxetan-3-yloxy)pyridin-3-yl]-4-oxo-4,5,6,7-tetrahydrofuro[3,2-c]pyridine-3-carboxamide] | 0.0216

Row | SMILES | IC50 [µM]
18 | CN1CCN(c2ccc(NC(=O)c3coc4c3C(=O)N(C)CC4)cc2)CC1 [Example 22, 5-methyl-N-[4-(4-methylpiperazin-1-yl)phenyl]-4-oxo-4,5,6,7-tetrahydrofuro[3,2-c]pyridine-3-carboxamide] | 0.2
19 | CN1CCc2occ(C(=O)Nc3ccc4[nH]ncc4c3)c2C1=O [Example 23, N-(1H-indazol-5-yl)-5-methyl-4-oxo-4,5,6,7-tetrahydrofuro[3,2-c]pyridine-3-carboxamide] | 0.257
20 | CN1CCc2occ(C(=O)Nc3ccc4c(cnn4C)c3)c2C1=O [Example 24, 5-methyl-N-(1-methyl-1H-indazol-5-yl)-4-oxo-4,5,6,7-tetrahydrofuro[3,2-c]pyridine-3-carboxamide] | 0.189
21 | CN1CCc2occ(C(=O)Nc3ccc(N4CCOCC4)cc3)c2C1=O [Example 25, 5-methyl-N-[4-(morpholin-4-yl)phenyl]-4-oxo-4,5,6,7-tetrahydrofuro[3,2-c]pyridine-3-carboxamide] | 0.112
22 | CN1CCc2occ(C(=O)Nc3ccc(C(N)=O)cc3)c2C1=O [Example 26, N-(4-carbamoylphenyl)-5-methyl-4-oxo-4,5,6,7-tetrahydrofuro[3,2-c]pyridine-3-carboxamide] | 0.202
23 | CN1CCc2occ(C(=O)Nc3ccc4[nH]cnc4c3)c2C1=O [Example 27, N-(1H-benzimidazol-5-yl)-5-methyl-4-oxo-4,5,6,7-tetrahydrofuro[3,2-c]pyridine-3-carboxamide] | 0.428
24 | CC(=O)N1CCN(c2ccc(NC(=O)c3coc4c3C(=O)N(C)CC4)cc2)CC1 [Example 28, N-[4-(4-acetylpiperazin-1-yl)phenyl]-5-methyl-4-oxo-4,5,6,7-tetrahydrofuro[3,2-c]pyridine-3-carboxamide] | 0.11
25 | Cc1nc2ccc(NC(=O)c3coc4c3C(=O)N(C)CC4)cc2s1 [Example 29, 5-methyl-N-(2-methyl-1,3-benzothiazol-6-yl)-4-oxo-4,5,6,7-tetrahydrofuro[3,2-c]pyridine-3-carboxamide] | 0.169
26 | Cc1ccc(NC(=O)c2coc3c2C(=O)NCC3)cc1 [Example 30, N-(4-methylphenyl)-4-oxo-4,5,6,7-tetrahydrofuro[3,2-c]pyridine-3-carboxamide] | 0.521
27 | O=C(Nc1ccc(O)cc1)c1coc2c1C(=O)NCC2 [Example 31, N-(4-hydroxyphenyl)-4-oxo-4,5,6,7-tetrahydrofuro[3,2-c]pyridine-3-carboxamide] | 0.39
28 | CC(=O)Nc1ccc(NC(=O)c2coc3c2C(=O)NCC3)cc1 [Example 32, N-(4-acetamidophenyl)-4-oxo-4,5,6,7-tetrahydrofuro[3,2-c]pyridine-3-carboxamide] | 0.554
29 | O=C(Nc1ccc2ncccc2c1)c1coc2c1C(=O)NCC2 [Example 33, 4-oxo-N-(quinolin-6-yl)-4,5,6,7-tetrahydrofuro[3,2-c]pyridine-3-carboxamide] | 0.111
30 | O=C(Nc1ccc2cn[nH]c2c1)c1coc2c1C(=O)NCC2 [Example 34, N-(1H-indazol-6-yl)-4-oxo-4,5,6,7-tetrahydrofuro[3,2-c]pyridine-3-carboxamide] | 0.91
31 | COc1ccc(NC(=O)c2coc3c2C(=O)NCC3)c(OC)n1 [Example 35, N-(2,6-dimethoxypyridin-3-yl)-4-oxo-4,5,6,7-tetrahydrofuro[3,2-c]pyridine-3-carboxamide] | 0.117
32 | O=C(Nc1ccon1)c1coc2c1C(=O)NCC2 [Example 36, N-(1,2-oxazol-3-yl)-4-oxo-4,5,6,7-tetrahydrofuro[3,2-c]pyridine-3-carboxamide] | 8.01
33 | O=C(Nc1cnccn1)c1coc2c1C(=O)NCC2 [Example 37, 4-oxo-N-(pyrazin-2-yl)-4,5,6,7-tetrahydrofuro[3,2-c]pyridine-3-carboxamide] | 3.21
34 | Cc1cc(NC(=O)c2coc3c2C(=O)NCC3)no1 [Example 38, N-(5-methyl-1,2-oxazol-3-yl)-4-oxo-4,5,6,7-tetrahydrofuro[3,2-c]pyridine-3-carboxamide] | 1.72
